Experimental data as given in patent US20230310309A1, “INJECTABLE DEPOT COMPOSITIONS FOR THE DELIVERY OF ANTIVIRAL AGENTS” (Merck Sharp & Dohme LLC, priority 2020, published 2023).
≈ marks a conversion by molar mass, not a printed value.

Experiment: solubility of islatravir in PBS
Format: physicochemical
Details: phosphate buffered saline (PBS), aqueous buffer, 37° C.

solubility: 1350 µg/mL (≈ 4.6 mM)
Structure (SMILES): C#C[C@]1(CO)O[C@@H](n2cnc3c(N)nc(F)nc32)C[C@@H]1O [islatravir, 4′-ethynyl-2-fluoro-2′-deoxyadenosine]
